# Measurements from patent US20230151025A1, “SUBSTITUTED THIAZOLOPYRIDINES, SALTS THEREOF AND THEIR USE AS HERBICIDALLY ACTIVE SUBSTANCES” (Bayer Aktiengesellschaft, priority 2020, published 2023).
# Experiments:
# Assay type in all cases: in vivo
# [1] = tested on: Abutilon theophrasti (ABUTH); test: Herbicidal post-emergence action (B), 1280 g/ha; settings: rated visually after about 3 weeks vs untreated controls
# Outline: (§1)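 Compounds formulated as wettable powder or emulsion concentrate, with 0.5% additive, sprayed at 600 l/ha onto one-leaf-stage plants grown in sandy loam for 2 to 3 weeks. Damage rated visually against untreated plants roughly 3 weeks later; 0% = like control, 100% = plants died.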
# Lolium rigidum (LOLRI) [2] = test: Herbicidal post-emergence action (B), 1280 g/ha; settings: one-leaf stage, rated after about 3 weeks vs untreated controls, 100% activity = the plants have died, 0% = like control plants
# Outline: as §1
# Poa annua (POAAN) [3] = test: Herbicidal post-emergence action (B), 1280 g/ha; settings: rated visually after about 3 weeks vs untreated controls
# Outline: as §1
# [4] = tested on: Amaranthus retroflexus (AMARE); test: Herbicidal post-emergence action (B), 1280 g/ha; settings: rated visually after about 3 weeks vs untreated controls
# Outline: as §1
# [5] = tested on: Echinochloa crus-galli (ECHCG); test: Herbicidal post-emergence action (B), 1280 g/ha; settings: rated visually after about 3 weeks vs untreated controls
# Outline: as §1
# Veronica persica (VERPE) [6] = test: Herbicidal post-emergence action (B), 1280 g/ha
# Outline: as §1
# Stellaria media (STEME) = test: Herbicidal post-emergence action (B), 1280 g/ha
# Outline: as §1
# [7] = tested on: Alopecurus myosuroides (ALOMY); test: Herbicidal post-emergence action (B), 1280 g/ha; settings: rated visually after about 3 weeks vs untreated controls
# Outline: as §1
# [8] = tested on: Kochia scoparia (KCHSC; Bassia scoparia); test: Herbicidal post-emergence action (B), 1280 g/ha
# Outline: as §1
# Lolium rigidum (LOLRI) [9] = test: Herbicidal pre-emergence action (C), 320 g/ha; settings: ca. 3 weeks
# Outline: (§2)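 Seeds sown in sandy loam; WP or EC formulations sprayed on covering soil pre-emergence at 320 g/ha in 600 l water/ha with 0.5% additive. Greenhouse culture; damage scored visually after ca. 3 weeks versus untreated controls (0% = as control, 100% = plants dead).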
# [10] = tested on: Amaranthus retroflexus (AMARE); test: Herbicidal pre-emergence action (C), 320 g/ha; settings: ca. 3 weeks
# Outline: as §2
# [11] = tested on: Echinochloa crus-galli (ECHCG); test: Herbicidal pre-emergence action (C), 320 g/ha; settings: ca. 3 weeks
# Outline: as §2
# Veronica persica (VERPE) [12] = test: Herbicidal pre-emergence action (C), 320 g/ha; settings: ca. 3 weeks
# Outline: as §2
# Setaria viridis (SETVI) [13] = test: Herbicidal pre-emergence action (C), 320 g/ha; settings: ca. 3 weeks
# Outline: as §2
# [14] = tested on: Alopecurus myosuroides (ALOMY); test: Herbicidal pre-emergence action (C), 320 g/ha; settings: ca. 3 weeks
# Outline: as §2
# Poa annua (POAAN) [15] = test: Herbicidal pre-emergence action (A), 1280 g/ha; settings: visual grading after ca. 3 weeks vs untreated controls, 100% = plants have died off, 0% = as control plants
# Outline: (§3)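 Visual percent damage scored about 3 weeks after treatment relative to untreated pots (100% = complete kill, 0% = no effect). Compounds, as wettable powder or emulsifiable concentrate plus 0.5% additive in 600 l water/ha, were applied to the soil surface over freshly sown seeds in sandy loam, greenhouse-grown.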
# [16] = tested on: Amaranthus retroflexus (AMARE); test: Herbicidal pre-emergence action (A), 1280 g/ha; settings: visual grading after ca. 3 weeks vs untreated controls
# Outline: as §3
# [17] = tested on: Echinochloa crus-galli (ECHCG); test: Herbicidal pre-emergence action (A), 1280 g/ha; settings: visual grading after ca. 3 weeks vs untreated controls, 100% = plants have died off, 0% = as control plants
# Outline: as §3
# Veronica persica (VERPE) [18] = test: Herbicidal pre-emergence action (A), 1280 g/ha; settings: visual grading after ca. 3 weeks vs untreated controls
# Outline: as §3
# Setaria viridis (SETVI) [19] = test: Herbicidal pre-emergence action (A), 1280 g/ha; settings: visual grading after ca. 3 weeks vs untreated controls
# Outline: as §3
# Setaria viridis (SETVI) [20] = test: Herbicidal post-emergence action (B), 1280 g/ha; settings: rated visually after about 3 weeks vs untreated controls
# Outline: as §1
# [21] = tested on: Abutilon theophrasti (ABUTH); test: Herbicidal pre-emergence action (A), 1280 g/ha; settings: visual grading after ca. 3 weeks vs untreated controls, 100% = plants have died off, 0% = as control plants
# Outline: as §3
# [22] = tested on: Digitaria sanguinalis (DIGSA); test: Herbicidal post-emergence action (B), 1280 g/ha; settings: rated visually after about 3 weeks vs untreated controls
# Outline: as §1
# [23] = tested on: Digitaria sanguinalis (DIGSA); test: Herbicidal pre-emergence action (C), 320 g/ha; settings: ca. 3 weeks
# Outline: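 Weed and crop seeds sown in sandy loam; WP or EC formulations applied pre-emergence to the soil surface as aqueous suspension/emulsion with 0.5% additive at 600 l water/ha. Greenhouse-grown under optimum conditions; damage visually scored after ca. 3 weeks versus untreated controls (0% = as control, 100% = plants dead).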
# [24] = tested on: Digitaria sanguinalis (DIGSA); test: Herbicidal pre-emergence action (A), 1280 g/ha; settings: visual grading after ca. 3 weeks vs untreated controls, 100% = plants have died off, 0% = as control plants
# Outline: as §3
smiles,measurement,setting,value
Cc1cc2scnc2nc1-c1ccsc1C [Example I-194],herbicidal activity ABUTH,[1],90%
same,"LOLRI, activity rated visually (%)",Lolium rigidum (LOLRI) [2],100%
same,herbicidal activity POAAN,Poa annua (POAAN) [3],100%
same,herbicidal activity AMARE,[4],100%
same,herbicidal activity ECHCG,[5],100%
same,herbicidal effect VERPE,Veronica persica (VERPE) [6],100%
same,herbicidal effect STEME,Stellaria media (STEME),100%
same,herbicidal activity ALOMY,[7],100%
same,herbicidal effect KCHSC,[8],100%
same,herbicidal effect LOLRI,Lolium rigidum (LOLRI) [9],100%
same,herbicidal effect AMARE,[10],90%
same,herbicidal effect ECHCG,[11],100%
same,herbicidal effect VERPE,Veronica persica (VERPE) [12],80%
same,herbicidal effect SETVI,Setaria viridis (SETVI) [13],100%
same,herbicidal effect ALOMY,[14],100%
same,"POAAN, herbicidal effect in percent (%)",Poa annua (POAAN) [15],100%
same,herbicidal effect AMARE,[16],100%
same,"ECHCG, herbicidal effect in percent (%)",[17],100%
same,herbicidal effect VERPE,Veronica persica (VERPE) [18],100%
same,herbicidal effect SETVI,Setaria viridis (SETVI) [19],100%
Cc1cc2scnc2nc1-c1sccc1C [Example I-143],herbicidal activity ABUTH,[1],100%
same,"LOLRI, activity rated visually (%)",Lolium rigidum (LOLRI) [2],100%
same,herbicidal activity POAAN,Poa annua (POAAN) [3],100%
same,herbicidal activity AMARE,[4],100%
same,herbicidal activity ECHCG,[5],100%
same,herbicidal effect VERPE,Veronica persica (VERPE) [6],100%
same,herbicidal effect STEME,Stellaria media (STEME),100%
same,herbicidal activity SETVI,Setaria viridis (SETVI) [20],90%
same,herbicidal activity ALOMY,[7],100%
same,herbicidal effect KCHSC,[8],100%
same,herbicidal effect LOLRI,Lolium rigidum (LOLRI) [9],100%
same,herbicidal effect AMARE,[10],90%
same,herbicidal effect ECHCG,[11],100%
same,herbicidal effect VERPE,Veronica persica (VERPE) [12],90%
same,herbicidal effect SETVI,Setaria viridis (SETVI) [13],100%
same,herbicidal effect ALOMY,[14],100%
same,"ABUTH, herbicidal effect in percent (%)",[21],90%
same,"POAAN, herbicidal effect in percent (%)",Poa annua (POAAN) [15],100%
same,herbicidal effect AMARE,[16],90%
same,"ECHCG, herbicidal effect in percent (%)",[17],100%
same,herbicidal effect VERPE,Veronica persica (VERPE) [18],100%
same,herbicidal effect SETVI,Setaria viridis (SETVI) [19],100%
COc1ccccc1-c1nc2ncsc2cc1C [Example I-124],herbicidal activity ABUTH,[1],100%
same,herbicidal activity POAAN,Poa annua (POAAN) [3],100%
same,herbicidal activity AMARE,[4],90%
same,herbicidal activity ECHCG,[5],90%
same,herbicidal effect VERPE,Veronica persica (VERPE) [6],100%
same,herbicidal effect STEME,Stellaria media (STEME),100%
same,herbicidal activity SETVI,Setaria viridis (SETVI) [20],90%
same,herbicidal activity ALOMY,[7],100%
same,herbicidal effect KCHSC,[8],100%
same,herbicidal activity DIGSA,[22],100%
same,herbicidal effect DIGSA,[23],100%
same,herbicidal effect LOLRI,Lolium rigidum (LOLRI) [9],100%
same,herbicidal effect AMARE,[10],90%
same,herbicidal effect ECHCG,[11],100%
same,herbicidal effect VERPE,Veronica persica (VERPE) [12],90%
same,herbicidal effect SETVI,Setaria viridis (SETVI) [13],100%
same,herbicidal effect ALOMY,[14],100%
same,"ABUTH, herbicidal effect in percent (%)",[21],100%
same,"POAAN, herbicidal effect in percent (%)",Poa annua (POAAN) [15],100%
same,herbicidal effect AMARE,[16],100%
same,"ECHCG, herbicidal effect in percent (%)",[17],100%
same,herbicidal effect VERPE,Veronica persica (VERPE) [18],100%
same,herbicidal effect SETVI,Setaria viridis (SETVI) [19],100%
same,"DIGSA, herbicidal effect in percent (%)",[24],100%
Fc1ccccc1-c1nc2ncsc2cc1I [Example I-188],"LOLRI, activity rated visually (%)",Lolium rigidum (LOLRI) [2],90%
same,herbicidal activity POAAN,Poa annua (POAAN) [3],90%
same,herbicidal activity AMARE,[4],100%
same,herbicidal activity ECHCG,[5],90%
same,herbicidal effect STEME,Stellaria media (STEME),90%
same,herbicidal activity SETVI,Setaria viridis (SETVI) [20],90%
same,herbicidal effect KCHSC,[8],90%
same,herbicidal effect LOLRI,Lolium rigidum (LOLRI) [9],100%
same,herbicidal effect AMARE,[10],90%
same,herbicidal effect ECHCG,[11],100%
same,herbicidal effect VERPE,Veronica persica (VERPE) [12],90%
same,herbicidal effect SETVI,Setaria viridis (SETVI) [13],100%
same,herbicidal effect ALOMY,[14],100%
same,"POAAN, herbicidal effect in percent (%)",Poa annua (POAAN) [15],100%
same,"ECHCG, herbicidal effect in percent (%)",[17],100%
same,herbicidal effect VERPE,Veronica persica (VERPE) [18],90%
same,herbicidal effect SETVI,Setaria viridis (SETVI) [19],100%
